Data on 15 compounds can be found in ChEMBL document CHEMBL1201862, “PubChem BioAssay data set” (2004).

For one experiment, the target named is Cytochrome P450 3A4 (Homo sapiens, UniProt P08684). The settings on record: Potency.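 Note: confirmatory qHTS run detecting inhibitors and substrates of CYP3A4.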
The target in the next experiment is T1, Bcl-2-related protein A1 (Mus musculus, UniProt Q07440).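 Note: confirmatory dose–response counterscreen on Bfl-1, used to check hits from a UBC13 polyubiquitin inhibitor campaign.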
T1 sequence (Q07440 whole entry): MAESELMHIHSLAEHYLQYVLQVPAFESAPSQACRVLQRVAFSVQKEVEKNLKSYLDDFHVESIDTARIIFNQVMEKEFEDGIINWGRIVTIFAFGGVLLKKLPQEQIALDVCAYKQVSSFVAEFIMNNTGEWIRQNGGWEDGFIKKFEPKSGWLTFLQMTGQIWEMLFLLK
The format is functional.

In experiment [1] the target is T2, Ubiquitin-conjugating enzyme E2 N (Homo sapiens, UniProt P61088).
T2 sequence (P61088 whole entry): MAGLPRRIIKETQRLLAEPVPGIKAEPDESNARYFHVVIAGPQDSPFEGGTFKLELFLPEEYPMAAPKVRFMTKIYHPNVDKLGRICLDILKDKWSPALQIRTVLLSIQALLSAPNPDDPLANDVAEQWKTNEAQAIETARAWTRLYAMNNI
The format is functional.

Experiment [2] has as its target T2, Ubiquitin-conjugating enzyme E2 N. The format is functional. This is another data set of the same source.
Another experiment concerns the target T3, Coagulation factor XII (Homo sapiens, UniProt P00748).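 Note: activated factor XIIa alpha cleaving a fluorogenic AMC peptide substrate; inhibitor potency from loss of enzyme activity.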
T3 sequence (P00748 whole entry): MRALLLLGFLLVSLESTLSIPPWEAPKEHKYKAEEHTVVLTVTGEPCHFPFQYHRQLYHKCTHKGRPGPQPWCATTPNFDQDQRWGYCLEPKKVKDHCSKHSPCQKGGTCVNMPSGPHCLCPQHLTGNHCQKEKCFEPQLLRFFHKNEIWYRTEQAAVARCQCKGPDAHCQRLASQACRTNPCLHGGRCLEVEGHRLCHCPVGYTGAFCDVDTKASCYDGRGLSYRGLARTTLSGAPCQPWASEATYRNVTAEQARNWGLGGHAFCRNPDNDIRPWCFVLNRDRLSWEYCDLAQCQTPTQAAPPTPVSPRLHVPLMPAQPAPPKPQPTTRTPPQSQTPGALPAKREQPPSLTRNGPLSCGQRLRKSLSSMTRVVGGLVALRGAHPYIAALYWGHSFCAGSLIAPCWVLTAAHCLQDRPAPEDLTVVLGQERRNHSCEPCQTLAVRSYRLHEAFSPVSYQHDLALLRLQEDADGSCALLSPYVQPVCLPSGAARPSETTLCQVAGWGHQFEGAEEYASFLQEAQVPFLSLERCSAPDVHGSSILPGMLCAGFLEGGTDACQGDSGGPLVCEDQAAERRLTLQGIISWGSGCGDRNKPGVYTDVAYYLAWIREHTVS
The format is functional.

Experiment [3] in a line: NIH3T3 cell viability loss – ATP luminescence, mouse fibroblasts, counter-screen, dose response (AID 2010).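 Note: cells exposed to compound for about 90 hours before reading.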 It counts as functional, cell-based. For orientation: The purpose of a counterscreen is to sort out artefacts and off-target activity.
Experiment [4] is described as follows: Trypanosoma cruzi growth suppression in host cells – NIH3T3 host cells, beta-gal luminescence, confirmation (AID 2044).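 Note: intracellular parasites grown in NIH/3T3 mouse fibroblasts as host cells; luminescent beta-galactosidase reporter signal from transgenic T. cruzi replicating inside host cells; inhibitors lower the luminescence signal.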 It counts as functional, cell-based.
A short description of experiment [5]: A cytotoxicity screen of small molecule inhibitors of the PhoP region in Salmonella typhi identified in the primary screen. [Related pubchem assays: 1850, 1864, 1985 ]. The format is functional.
For a further experiment, the target named is SUMO-activating enzyme (Homo sapiens, UniProt Q9UBT2). Description: blockers of UBC9-mediated SUMO conjugation – biochemical, AlphaScreen, SUMOylation inhibitor project, confirmation (AID 2018). It counts as functional.
Experiment [6] can be described thus: viability of HCT116 lacking mutant beta-catenin – cell-based, human colon tumor, dose response (AID 1045).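 Note: HCT116 colon tumor cells with beta catenin knocked out; cells exposed to compound for 60 hours.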 The format is functional.
Experiment [7] is described as follows: viability of PTEN-deleted HCT116 cells – cell-based, HCT116 PTEN knockout, dose response (AID 1047).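 Note: HCT116 colon tumor cells with PTEN knocked out; cells exposed to compound for 60 hours before readout; potency for loss of cell viability measured by luminescence.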 The format is functional.
Experiment [8] can be described thus: Luminescence Cell-Based Dose Retest to Confirm Inhibitors of Cancer Stem Cells. [Related pubchem assays (depositor defined):AID2717, AID2721]. The format is functional. The settings on record: Homo sapiens.
The subject of experiment [9] is HEK293. Description: cells. To be noted: Homo sapiens.
Experiment [10] has as its system HEK293. Description: cells. To be noted: Homo sapiens. The source holds these as a separate data set.
Another experiment concerns H9c2. Description: cells. It counts as functional, cell-based. To be noted: Rattus norvegicus, H9c2, Myocardium.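 Note: confirmatory concentration-response retest of ultra-high-throughput screening hits for modulation of myocardial damage; cell death induced by hydrogen peroxide oxidative stress; compound pretreatment for 60 min then peroxide exposure for 2 h; potency is for protecting the cells against peroxide damage rather than for killing them.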
Experiment [11] can be described thus: viability of uninfected HEp-2 cells – cell-based, HTS, cytotoxicity control for RSV inhibitor project, dose response (AID 2410). It counts as functional. To be noted: human respiratory syncytial virus.
In the next experiment the target is Trypsin (Sus scrofa, UniProt P00761). Description: trypsin protease activity blockade – biochemical, quenched peptide fluorescence, cherry-pick, selectivity assay for Rce1 protease inhibitor project, dose response (AID 488789).
Experiment [12] has as its target Beta-2 adrenergic receptor (Homo sapiens, UniProt P07550). Description: ADRB2 activation measured by internalization – cell-based, FAP fluorogen, flow cytometry, cherry pick 1, dose response (AID 588763). The format is functional. For orientation: A flow cytometer gives signals particle by particle.

Molecules are shown by their SMILES. Activity calls are given as the source filed them.

A word on the AC50: it is the concentration at which the activity in the assay is half-maximal. The IC50 is the concentration that gives 50% inhibition. The term EC50 denotes the concentration needed to bring the measured effect to its halfway point. Usually CC50 stands for the concentration giving 50% cytotoxicity.

Cytochrome P450 3A4, sequence (P08684 whole entry): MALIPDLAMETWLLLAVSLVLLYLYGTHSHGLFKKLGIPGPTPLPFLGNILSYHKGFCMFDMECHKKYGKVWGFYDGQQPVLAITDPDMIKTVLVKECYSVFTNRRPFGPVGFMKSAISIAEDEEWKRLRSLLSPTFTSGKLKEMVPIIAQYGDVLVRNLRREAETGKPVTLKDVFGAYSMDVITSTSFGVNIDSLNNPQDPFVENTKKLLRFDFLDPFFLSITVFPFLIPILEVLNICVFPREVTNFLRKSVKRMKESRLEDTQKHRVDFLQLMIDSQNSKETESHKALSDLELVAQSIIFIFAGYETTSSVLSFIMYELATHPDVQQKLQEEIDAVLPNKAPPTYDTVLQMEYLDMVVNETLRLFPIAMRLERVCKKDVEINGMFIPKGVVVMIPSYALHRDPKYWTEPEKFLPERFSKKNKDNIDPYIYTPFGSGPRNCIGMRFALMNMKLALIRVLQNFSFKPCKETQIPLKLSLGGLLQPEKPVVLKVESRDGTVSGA
SUMO-activating enzyme, sequence (Q9UBE0 whole entry): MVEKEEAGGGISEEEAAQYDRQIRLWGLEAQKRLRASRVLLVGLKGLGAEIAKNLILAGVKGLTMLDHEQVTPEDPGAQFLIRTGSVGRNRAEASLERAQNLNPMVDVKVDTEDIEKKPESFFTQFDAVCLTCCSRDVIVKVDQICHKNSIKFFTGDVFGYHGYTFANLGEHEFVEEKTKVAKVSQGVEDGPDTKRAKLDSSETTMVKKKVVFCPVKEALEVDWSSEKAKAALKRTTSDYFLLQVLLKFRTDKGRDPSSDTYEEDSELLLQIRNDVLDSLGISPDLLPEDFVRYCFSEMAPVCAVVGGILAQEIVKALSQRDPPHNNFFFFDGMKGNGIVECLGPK
SUMO-activating enzyme, sequence (Q9UBT2 whole entry): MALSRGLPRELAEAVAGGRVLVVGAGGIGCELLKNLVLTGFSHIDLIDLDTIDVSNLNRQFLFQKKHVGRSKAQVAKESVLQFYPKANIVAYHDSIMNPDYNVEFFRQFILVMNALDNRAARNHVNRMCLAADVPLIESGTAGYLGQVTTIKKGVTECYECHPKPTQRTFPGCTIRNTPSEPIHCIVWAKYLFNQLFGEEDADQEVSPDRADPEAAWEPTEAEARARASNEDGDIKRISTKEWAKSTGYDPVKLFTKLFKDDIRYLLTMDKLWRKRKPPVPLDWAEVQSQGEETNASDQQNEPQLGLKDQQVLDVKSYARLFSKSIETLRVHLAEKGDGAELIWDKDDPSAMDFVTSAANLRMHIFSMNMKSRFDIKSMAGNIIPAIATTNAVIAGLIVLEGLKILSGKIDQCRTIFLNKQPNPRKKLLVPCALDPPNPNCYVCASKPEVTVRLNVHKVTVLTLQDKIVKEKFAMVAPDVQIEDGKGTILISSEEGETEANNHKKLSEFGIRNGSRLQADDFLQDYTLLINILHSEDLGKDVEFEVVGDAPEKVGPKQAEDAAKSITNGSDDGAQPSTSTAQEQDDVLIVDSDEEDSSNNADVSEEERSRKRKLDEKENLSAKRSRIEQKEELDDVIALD
Beta-2 adrenergic receptor, sequence (P07550 whole entry): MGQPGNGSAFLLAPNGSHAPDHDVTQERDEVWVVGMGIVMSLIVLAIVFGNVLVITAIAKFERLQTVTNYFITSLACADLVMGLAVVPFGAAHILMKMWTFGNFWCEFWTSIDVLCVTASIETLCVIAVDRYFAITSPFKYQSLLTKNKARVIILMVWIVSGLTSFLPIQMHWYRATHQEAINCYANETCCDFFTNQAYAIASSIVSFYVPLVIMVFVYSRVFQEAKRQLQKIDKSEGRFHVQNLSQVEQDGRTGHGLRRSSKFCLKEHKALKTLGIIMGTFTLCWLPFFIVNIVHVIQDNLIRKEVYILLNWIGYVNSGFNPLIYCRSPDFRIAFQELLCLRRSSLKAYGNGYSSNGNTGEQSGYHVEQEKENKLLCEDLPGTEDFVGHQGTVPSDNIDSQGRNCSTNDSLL
Trypsin, sequence (P00761 whole entry): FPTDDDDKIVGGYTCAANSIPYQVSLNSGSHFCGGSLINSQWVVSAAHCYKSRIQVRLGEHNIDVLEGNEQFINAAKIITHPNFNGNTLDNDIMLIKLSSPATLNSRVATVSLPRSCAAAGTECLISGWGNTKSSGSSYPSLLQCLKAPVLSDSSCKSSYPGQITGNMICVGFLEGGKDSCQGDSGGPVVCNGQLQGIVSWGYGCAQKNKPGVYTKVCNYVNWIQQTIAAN

Regarding `COC(=O)N1[C@H](C)C=C[C@]1(Cc1ccccc1)C(=O)NCc1ccccn1`, the AC50 on Cytochrome P450 3A4 was 3.98 µM (inconclusive).
On to `COc1cc(/C=N/NC(=O)CSCc2ccc([N+](=O)[O-])cc2)cc(OC)c1OC`, for which the figures for the IC50 (at Bcl-2-related protein A1; in [1]; in [2]) were > 20 µM (inactive), 4.56 µM (active) and 7.06 µM (active), respectively.
As for `Cc1ccc(N(CC(O)CN2C(=O)NC(C)(C)C2=O)S(=O)(=O)c2ccc(C)cc2)cc1` (stereo not drawn), the IC50 at Coagulation factor XII was > 50 µM (inactive).
For the compound `COc1ccc(N(CCCN2C(=O)c3cccc4cccc(c34)C2=O)C(=O)c2cccnc2)cc1`, the EC50 in experiment [3] is > 60 µM (not active); in experiment [4], 666 nM (active); in [5], > 50 µM (active).
For the compound `COc1ccnc2c1c(=O)n(Cc1ccc(Cl)cc1)c(=O)n2C`, the values for the IC50 (on Bcl-2-related protein A1; in experiment [1]; in experiment [2]) were 4.03 µM (active), 11.7 µM (active) and 8.22 µM (active), respectively.
Take `C=C1CCC2C(CC2(C)C)C(=C)CC/C1=N/O` (stereo not drawn) [5-HYDROXYIMINOISOCARYOPHYLLENE]: the AC50 on Cytochrome P450 3A4 is 31.6 µM (inconclusive).
`Cc1ccc(/C=N/NC(=O)c2cccc(S(=O)(=O)Nc3cccc(Cl)c3)c2)o1`: the IC50 at SUMO-activating enzyme is 82.1 µM (active).
Regarding `CC1CCN(S(=O)(=O)c2ccc3c(c2)C(=NO)c2cc(S(=O)(=O)N4CCC(C)CC4)ccc2-3)CC1`, the EC50 is 265 nM (active) in experiment [6], 303 nM (active) in [7], > 59.6 µM (inactive) in the experiment on HEK293 [9] and > 59.6 µM (inactive) in the experiment on HEK293 [10]. The AC50 in experiment [8] is 584 nM (active).
`COC(=O)Cc1c(C)nc2nc(-c3ccc(C)cc3)nn2c1O`: at Coagulation factor XII, the IC50 is > 50 µM (inactive).
On to `C#CCOCCOCCOCCNc1nc(N2CCOCC2)nc(N2CCN(C(=O)[C@H](CCCCN)n3cc(CN)nn3)CC2)n1`, for which the values for the IC50 (at Bcl-2-related protein A1; in [1]; in [2]) were > 20 µM (inactive), 15.3 µM (active) and > 20 µM (inactive), respectively.
On to `CCOC(=O)c1cccc(Nc2nc(-c3cccnc3)nc3ccccc23)c1`, for which the IC50 was > 20 µM (inactive) at Bcl-2-related protein A1, 14.5 µM (active) in experiment [1], 15.2 µM (active) in [2] and 24 µM (active) in the experiment on H9c2. Besides, the CC50 in [11] is 14 µM (active).
Take `COc1ccc(CSc2ccc(-c3nc4ccccn4c3NCc3ccccc3)cc2OC)cc1`: at Trypsin, the AC50 was 4.45 µM (active). Further, in [12], the EC50 is 1.32 µM (active).
As to `CCCCn1c(N)c(C(=O)OCCOC)c2nc3ccccc3nc21`, on SUMO-activating enzyme, the IC50 is 38 µM (active).
Consider `CCCNC(=O)c1ccccc1NC(=O)c1ccccc1N(C)S(=O)(=O)c1ccc(C)cc1`, for which the EC50 with HEK293 [9] and in the experiment with HEK293 [10] was > 59.6 µM (inactive) throughout.
Consider `Cc1ccc2cc(CN(C(=O)c3cccs3)c3ccccc3)c(O)nc2c1`, for which the IC50 on Coagulation factor XII was > 50 µM (inactive).
